Data set [1] concerns ST-2. Description: […] of alkaline phosphatase activity in mouse ST-2 cells. The data set is classed as cell-based.
The nature of data set [2]: Solubility of the compound in JP2 fluid at pH 6.8. It is filed as physicochemical.
Data set [3] is described as follows: Cmax in Fischer 344 rat at 3 mg/kg, po. Details: route oral, dose 3 mg/kg. It is filed as ADME, organism-based. The note with it: in vivo.
The nature of data set [4]: AUC (0 to 8 hrs) in Fischer 344 rat at 3 mg/kg, po. As to conditions: in vivo. Also on record: time < 8 hr, route oral, dose 3 mg/kg. It is filed as ADME, organism-based.
Data set [5] deals with T1, CYP1A2 (Homo sapiens, UniProt P05177).
T1 sequence (P05177 whole entry): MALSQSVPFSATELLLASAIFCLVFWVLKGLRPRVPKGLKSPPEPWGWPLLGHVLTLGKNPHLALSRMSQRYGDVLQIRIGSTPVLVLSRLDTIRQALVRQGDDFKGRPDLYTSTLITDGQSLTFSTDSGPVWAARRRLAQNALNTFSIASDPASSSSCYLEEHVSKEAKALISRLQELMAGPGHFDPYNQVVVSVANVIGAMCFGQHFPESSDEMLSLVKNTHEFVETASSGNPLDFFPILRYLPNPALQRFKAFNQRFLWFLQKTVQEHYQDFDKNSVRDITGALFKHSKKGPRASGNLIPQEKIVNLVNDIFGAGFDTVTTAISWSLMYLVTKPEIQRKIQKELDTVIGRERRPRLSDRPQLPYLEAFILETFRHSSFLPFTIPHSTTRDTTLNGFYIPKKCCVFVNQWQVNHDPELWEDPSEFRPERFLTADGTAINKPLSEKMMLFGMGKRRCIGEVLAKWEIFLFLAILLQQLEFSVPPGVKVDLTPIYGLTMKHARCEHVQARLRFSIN
The experiment in a line: Inhibition of CYP1A2 (unknown origin) at 10 uM. The data set is classed as ADME.

Data set [6] concerns the target CYP2C9 (Homo sapiens, UniProt P11712). Description: Inhibition of CYP2C9 (unknown origin) at 10 uM. The data set is classed as ADME.
For data set [7], the target named is CYP2C19 (Homo sapiens, UniProt P33261). The experiment in a line: Inhibition of CYP2C19 (unknown origin) at 10 uM. It is filed as ADME.
Chain of CYP2C19 (P33261 whole entry): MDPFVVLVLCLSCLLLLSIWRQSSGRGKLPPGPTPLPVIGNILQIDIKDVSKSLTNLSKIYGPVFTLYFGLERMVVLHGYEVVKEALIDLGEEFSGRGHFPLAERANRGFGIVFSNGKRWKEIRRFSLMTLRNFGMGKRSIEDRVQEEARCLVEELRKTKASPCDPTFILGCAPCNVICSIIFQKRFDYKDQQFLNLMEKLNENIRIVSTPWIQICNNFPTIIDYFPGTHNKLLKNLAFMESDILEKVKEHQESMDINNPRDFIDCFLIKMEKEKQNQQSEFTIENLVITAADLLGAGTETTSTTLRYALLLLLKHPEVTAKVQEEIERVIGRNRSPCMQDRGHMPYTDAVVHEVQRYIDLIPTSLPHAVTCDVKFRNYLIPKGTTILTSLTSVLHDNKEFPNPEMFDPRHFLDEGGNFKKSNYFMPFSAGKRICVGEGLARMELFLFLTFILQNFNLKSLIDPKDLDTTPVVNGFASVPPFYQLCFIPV
The target of data set [8] is CYP2D6 (Homo sapiens, UniProt P10635). Description: Inhibition of CYP2D6 (unknown origin) at 10 uM. It is filed as ADME.
Chain of CYP2D6 (P10635 whole entry): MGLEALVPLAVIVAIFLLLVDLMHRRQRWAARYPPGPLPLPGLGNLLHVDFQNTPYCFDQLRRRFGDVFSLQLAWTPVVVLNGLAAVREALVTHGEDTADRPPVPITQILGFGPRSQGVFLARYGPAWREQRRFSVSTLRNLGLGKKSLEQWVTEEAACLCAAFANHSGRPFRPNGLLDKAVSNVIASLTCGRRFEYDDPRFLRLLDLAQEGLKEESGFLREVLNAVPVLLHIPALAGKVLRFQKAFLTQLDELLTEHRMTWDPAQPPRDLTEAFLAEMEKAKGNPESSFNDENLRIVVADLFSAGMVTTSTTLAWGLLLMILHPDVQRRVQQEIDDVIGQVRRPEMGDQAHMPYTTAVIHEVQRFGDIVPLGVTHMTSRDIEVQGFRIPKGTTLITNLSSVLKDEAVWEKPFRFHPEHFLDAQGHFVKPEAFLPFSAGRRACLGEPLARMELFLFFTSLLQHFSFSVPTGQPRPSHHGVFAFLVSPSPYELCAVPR
Data set [9] addresses T2, CYP3A4 (Homo sapiens, UniProt P08684). Description: Inhibition of CYP3A4 (unknown origin) at 10 uM. The data set is classed as ADME.
For data set [10], the target named is T2, CYP3A4. The experiment in a line: Time dependent inhibition of CYP3A4 in human liver microsomes assessed as parent compound remaining at 100 uM. It is filed as ADME. The note with it: read-out: TDI. A general note: Microsomes from liver hold many membrane-bound enzymes, among them those of drug oxidation.
The subject of data set [11] is Rattus norvegicus. The experiment in a line: Anti-osteoporosis activity in ovariectomized rat assessed as […] in areal bone mineral density in humeral diaphysis at 1 mg/kg, po qd measured after 14 weeks. It is filed as functional, organism-based.
The test system of data set [12] is Rattus norvegicus. Description: Anti-osteoporosis activity in ovariectomized rat assessed as […] in areal bone mineral density in total humerus at 1 mg/kg, po qd measured after 14 weeks. It is filed as functional, organism-based.
Data set [13] deals with Rattus norvegicus. Description: Anti-osteoporosis activity in ovariectomized rat assessed as […] in areal bone mineral density in humeral diaphysis at 3 mg/kg, po qd measured after 14 weeks. It is filed as functional, organism-based.
Data set [14] has as its system Rattus norvegicus. The experiment in a line: Anti-osteoporosis activity in ovariectomized rat assessed as increase in bone strength at 1 mg/kg, po. It is filed as functional, organism-based.
In data set [15] the test system is Rattus norvegicus. Description: Antiosteoporotic activity against OVX-induced rat model assessed as increase in osteocalcin secretion in serum at 3 mg/kg/day. It is filed as functional, organism-based.
Data set [16] concerns Rattus norvegicus. Description: Antiosteoporotic activity against OVX-induced rat model assessed as increase in deo-xypyridinoline level at 0.3 mg/kg/day. It is filed as functional, organism-based.
Data set [17] can be described thus: Metabolic stability in human liver microsomes assessed as compound remaining at 0.5 mg/ml measured after 30 mins. It is filed as ADME, Microsome. As to conditions: read-out: Stability.
Data set [18] is described as follows: Effective permeability coefficient at pH 5 by PAMPA method. The data set is classed as ADME. The note with it: read-out: Peff. Background: The PAMPA barrier holds no transporters, so it reflects passive diffusion.
Data set [19] is described as follows: Effective permeability coefficient at pH 7.4 by PAMPA method. The data set is classed as ADME. As to conditions: read-out: Peff.
Data set [20] in a line: AUC in Fischer 344 rat at 100 mg/kg, po. The data set is classed as ADME, organism-based. Details: dose 100 mg/kg. As to conditions: in vivo.

Values after ≈ are worked out from the molar mass of the structure shown. Active and inactive are the calls of the source. The calls are words filed in the database; no cut-off is given here. Some results are limits rather than exact numbers.

T2 sequence (P08684 whole entry): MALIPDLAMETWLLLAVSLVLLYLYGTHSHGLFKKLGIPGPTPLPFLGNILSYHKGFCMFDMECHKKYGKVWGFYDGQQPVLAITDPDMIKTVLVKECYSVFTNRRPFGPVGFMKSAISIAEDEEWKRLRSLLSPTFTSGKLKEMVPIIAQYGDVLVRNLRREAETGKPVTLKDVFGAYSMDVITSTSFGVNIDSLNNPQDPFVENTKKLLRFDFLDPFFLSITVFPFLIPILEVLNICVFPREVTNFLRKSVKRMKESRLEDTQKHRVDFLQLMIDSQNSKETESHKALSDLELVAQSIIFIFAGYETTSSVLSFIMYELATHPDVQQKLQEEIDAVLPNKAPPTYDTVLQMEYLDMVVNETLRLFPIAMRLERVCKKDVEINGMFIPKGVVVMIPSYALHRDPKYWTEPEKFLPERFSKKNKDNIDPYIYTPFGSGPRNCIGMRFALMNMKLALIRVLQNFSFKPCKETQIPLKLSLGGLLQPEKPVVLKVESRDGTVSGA
Chain of CYP2C9 (P11712 whole entry): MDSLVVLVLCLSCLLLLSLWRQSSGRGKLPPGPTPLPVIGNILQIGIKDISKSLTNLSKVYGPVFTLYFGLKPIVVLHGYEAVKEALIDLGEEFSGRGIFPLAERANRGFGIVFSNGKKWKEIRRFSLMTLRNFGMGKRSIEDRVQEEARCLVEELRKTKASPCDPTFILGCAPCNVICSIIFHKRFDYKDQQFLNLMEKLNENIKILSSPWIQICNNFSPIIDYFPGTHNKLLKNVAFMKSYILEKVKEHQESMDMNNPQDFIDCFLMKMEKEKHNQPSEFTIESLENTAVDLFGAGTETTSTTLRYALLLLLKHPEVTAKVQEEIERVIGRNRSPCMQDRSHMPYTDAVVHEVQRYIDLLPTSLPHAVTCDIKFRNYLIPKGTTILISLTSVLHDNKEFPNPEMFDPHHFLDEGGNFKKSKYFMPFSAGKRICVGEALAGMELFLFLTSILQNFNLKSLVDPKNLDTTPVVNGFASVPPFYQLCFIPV

Turning to `CN(C)c1ccnc2sc(C(N)=O)c(N)c12`, in [1], the EC200 worked out at 0.17 µg/mL.
Regarding `CCOCCOC[C@H]1CCCN(c2ccnc3sc(C(N)=O)c(N)c23)C1`, in data set [1], the EC200 is 0.024 µg/mL. The compound further had a solubility in data set [2] of 500 µg/mL (≈ 1320 µM). The compound further registered a Cmax in [3] of 804 ng/mL. Also, the area under the curve AUC(0-t) at 8 h in [4] worked out at 2000 ng·h/mL. Besides, the inhibition at 10 µM in data set [5] came out at 33%; in [6] it was 2%; in data set [7], 15%; in data set [8], 2%; in data set [9] it was 10%. The remaining at 100 µM in data set [10] turned out to be 82%. Further, the result in [11], in data set [12], in data set [13], in data set [14], in data set [15] and in data set [16] was Active.
`COCCC1CCCN(c2ccnc3sc(C(N)=O)c(N)c23)C1` (stereo not drawn): the EC200 in data set [1] was 0.26 µg/mL.
Turning to `COCC1CCCN(c2ccnc3sc(C(N)=O)c(N)c23)C1` (stereo in doubt; 9g) [listing 1 of 2 here], in data set [1], the EC200 worked out at 0.049 µg/mL.
For the compound `CN(C)C(=O)C1CCCN(c2ccnc3sc(C(N)=O)c(N)c23)C1` (stereo not drawn), in [1], the EC200 was > 0.3 µg/mL.
Take `COC[C@@H]1CCCN(c2ccnc3sc(C(N)=O)c(N)c23)C1`: the EC200 in data set [1] is 0.25 µg/mL.
As for `COCC1CCCN(c2ccnc3sc(C(N)=O)c(N)c23)C1` (stereo in doubt; 9g) [listing 2 of 2 here], the remaining at 0.5 h in [17] amounted to 66%.
Consider `Cn1cnnc1COC[C@H]1CCCN(c2ccnc3sc(C(N)=O)c(N)c23)C1`, for which the EC200 in [1] was 0.168 µg/mL.
`CC1CCN(c2ccnc3sc(C(N)=O)c(N)c23)CC1` returned an EC200 in [1] of 0.23 µg/mL.
For the compound `Cc1noc(COC[C@H]2CCCN(c3ccnc4sc(C(N)=O)c(N)c34)C2)n1`, the EC200 in data set [1] stood at 0.017 µg/mL. Moreover, the highest level in [3] (Cmax) was 158 ng/mL. The compound also returned an AUC(0-t) at 8 h in data set [4] of 563 ng·h/mL.
Take `NC(=O)c1sc2nccc(N3CCCCC3)c2c1N`: the EC200 in data set [1] is 0.067 µg/mL. Further, the remaining at 0.5 h in [17] was found to be 20%. For the same compound, the inhibition at 10 µM in data set [5] came to 62%; in data set [6] it was 4%; in data set [7], 0%; in data set [8] it was 9%; in data set [9], 23%. Also, in [10], the remaining at 100 µM came to 92%.
`Cn1ccnc1COC[C@H]1CCCN(c2ccnc3sc(C(N)=O)c(N)c23)C1` displayed an EC200 in [1] of 0.019 µg/mL. Besides, the peak level in [3] (Cmax) was 15.1 ng/mL. Besides, in data set [4], the AUC(0-t) at 8 h worked out at 45 ng·h/mL.
In the case of `NC(=O)c1sc2nccc(N3CCCN(c4ccccc4)CC3)c2c1N`, the EC200 in data set [1] stood at 0.051 µg/mL. The remaining at 100 µM in [10] amounted to 28%.
In [1], `CC1CCCN(c2ccnc3sc(C(N)=O)c(N)c23)C1` (stereo not drawn) registered an EC200 of 0.024 µg/mL. Moreover, the remaining at 0.5 h in [17] was 18%.
In turn, `COC(C)[C@H]1CCCN(c2ccnc3sc(C(N)=O)c(N)c23)C1` (stereo partly drawn) came in with an EC200 in data set [1] of 0.146 µg/mL.
Consider `CCOCC1CCCN(c2ccnc3sc(C(N)=O)c(N)c23)C1` (stereo not drawn), for which the EC200 in data set [1] came out at 0.031 µg/mL.
`NC(=O)c1sc2nccc(N3CCCC(O)C3)c2c1N` (stereo not drawn): the EC200 in data set [1] is 0.17 µg/mL.
`NC(=O)c1sc2nccc(N3CCC[C@H](COCCO)C3)c2c1N` registered an EC200 in data set [1] of 0.017 µg/mL. The Cmax in [3] was 114 ng/mL. The AUC(0-t) at 8 h in data set [4] worked out at 320 ng·h/mL. Also, the figures for the Papp in [18] and in data set [19] were 2.8 ×10⁻⁶ cm/s and 2.9 ×10⁻⁶ cm/s, respectively.
In [1], `COCCCC1CCCN(c2ccnc3sc(C(N)=O)c(N)c23)C1` (stereo not drawn) registered an EC200 of 0.026 µg/mL.
Turning to `Cc1cc(N2CCC[C@H](COCc3nc(C)no3)C2)c2c(N)c(C(N)=O)sc2n1`, the EC200 in [1] was determined as 0.026 µg/mL. In data set [3], this compound showed a Cmax of 188 ng/mL. This compound also yielded an AUC(0-t) at 8 h in [4] of 722 ng·h/mL.
In the case of `COCC1CCCN(c2ccnc3sc(C(N)=O)c(N)c23)C1` (racemic), in [1], the EC200 is 0.049 µg/mL.
`CCOCCOC[C@H]1CCCN(c2cc(C)nc3sc(C(N)=O)c(N)c23)C1` had an EC200 in [1] of 0.03 µg/mL. Besides, in data set [2], the concentration in solution (solubility) was 560 µg/mL (≈ 1430 µM). In addition, the concentration in data set [3] peaked (Cmax) at 357 ng/mL. Also, the AUC(0-t) at 8 h in data set [4] worked out at 1350 ng·h/mL.
In data set [1], `CC(C)OC[C@H]1CCCN(c2ccnc3sc(C(N)=O)c(N)c23)C1` had an EC200 of 0.057 µg/mL.
Same read-out and setting: in the case of `Cc1nsc(COC[C@H]2CCCN(c3ccnc4sc(C(N)=O)c(N)c34)C2)n1` it was 0.05 µg/mL.
`NC(=O)c1sc2nccc(N3CCCC(CO)C3)c2c1N` (stereo not drawn): the EC200 in data set [1] is 0.076 µg/mL.
In turn, `CCCOCC1CCCN(c2ccnc3sc(C(N)=O)c(N)c23)C1` (stereo not drawn) had an EC200 in data set [1] of 0.095 µg/mL.
With `Cc1cc(Oc2ccc(CCCC(=O)N(C)C)cc2F)c2c(N)c(C(N)=O)sc2n1`, the EC200 in [1] was found to be 0.0005 µg/mL.
As for `NC(=O)c1sc2nccc(N3CCCC(C(=O)O)C3)c2c1N` (stereo not drawn), the EC200 in data set [1] was > 0.3 µg/mL. Besides, the AUC in [20] turned out to be 18800 ng·h/mL.
As to `COC[C@H]1CCCN(c2ccnc3sc(C(N)=O)c(N)c23)C1`, the EC200 in data set [1] is 0.022 µg/mL. In data set [2], this compound registered a solubility of 220 µg/mL (≈ 687 µM). The compound also showed a Cmax in [3] of 80.5 ng/mL. Also, in [4], the AUC(0-t) at 8 h turned out to be 227 ng·h/mL.
The compound `NC(=O)c1sc2nccc(N3CCC[C@H](COCC(=O)N4CCOCC4)C3)c2c1N` registered an EC200 in [1] of 0.014 µg/mL. The concentration in [3] peaked (Cmax) at 217 ng/mL. The compound also returned an AUC(0-t) at 8 h in data set [4] of 756 ng·h/mL.

A word on the solubility: it is the concentration that dissolves in the medium under given conditions. By Cmax is commonly meant the peak of the concentration-time curve. By AUC(0-t) is commonly meant exposure summed from dosing to a finite time, without extrapolation to infinity. Low values mean less exposure, high ones more exposure. The inhibition is the share of the control response that was lost under treatment. Read a high inhibition as a strong effect. What is called AUC is the area under the concentration-time curve, a measure of exposure. Read a high AUC as high exposure.

Source of the values: ChEMBL document CHEMBL5029178, “Discovery of 3-amino-4-{(3S)-3-[(2-ethoxyethoxy)methyl]piperidin-1-yl}thieno[2,3-b]pyridine-2-carboxamide (DS96432529): A potent and orally active bone anabolic agent” (Bioorg Med Chem Lett, 2021).
